Target: Glycogen synthase kinase-3 beta (Homo sapiens, UniProt P49841)
Test: Biochemical hGSK-3Beta Assay: Compounds were tested for their ability to inhibit human Glycogen Synthase Kinase-3 beta (hGSK-3β) to phosphorylate biotin-[…](pS)EDEEE. Compounds were incubated with 0.5 μCi 33P-ATP, 10 μM ATP, 0.0125 U hGSK-3β (Upstate cell signaling solutions) and 1 μM substrate (biotin-[…](pS)EDEEE) in 50 mM HEPES, 10 mM MgCl2, 100 mM Na3VO4, 1 mM DTT, 0.0075% Triton, 2% DMSO (total volume 50 μL) for 30 minutes at room temperature. The incubation was stopped by addition of an equal volume of 100 mM EDTA, 4M NaCl. 80 μL of this mixture was added to streptavidin-coated Flash-plates (PerkinElmer). Following a wash step, 33P incorporation was quantified on a MicroBeta microplate liquid scintillation counter (Perkin Elmer). IC50s were determined by fitting a sigmoidal dose-response curve to the counts obtained at the different concentrations in GraphPad Prism.

Sequence of Glycogen synthase kinase-3 beta (P49841 whole entry): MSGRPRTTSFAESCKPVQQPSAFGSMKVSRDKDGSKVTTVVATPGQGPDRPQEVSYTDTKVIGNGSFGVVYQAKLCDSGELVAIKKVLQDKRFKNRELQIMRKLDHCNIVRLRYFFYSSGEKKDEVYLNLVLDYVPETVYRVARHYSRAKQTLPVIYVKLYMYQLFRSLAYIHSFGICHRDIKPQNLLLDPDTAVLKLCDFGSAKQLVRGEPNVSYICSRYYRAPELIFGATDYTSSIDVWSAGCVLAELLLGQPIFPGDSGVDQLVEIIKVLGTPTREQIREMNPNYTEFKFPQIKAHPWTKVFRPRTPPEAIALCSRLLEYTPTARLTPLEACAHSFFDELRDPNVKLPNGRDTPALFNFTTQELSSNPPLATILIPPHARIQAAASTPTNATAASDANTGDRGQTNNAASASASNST

N#Cc1ccc2c(c1)C(c1ccc3c(n1)CCCC3=O)C(=O)N2 (configuration not stated)
IC50: < 100 nM

N#Cc1ccc2c(c1)C(c1ccc3c(n1)C(O)CCC3)C(=O)N2 (configuration not stated)
IC50: < 100 nM
